Entries after “also recorded” stand apart in the source; their conditions may differ. Positions of bridges follow the written chain, without caps; N, C: chain ends. Residues, ends and D or L forms follow the SMILES beside them.
Tested on: hiPS-CMs (clone C2a, ventricular-like)
Assay: Manual patch-clamp of spontaneous action potentials in hiPS-CMs
Assay type: cell-based, human
Source text: For this study, we used a non-commercial hiPS cell clone (C2a) that has been fully characterized earlier in the laboratory. The properties of the cardiomyocytes derived from this clone may differ to some extent from those of commercial clones, but this should not affect the nature of the conclusions derived from our investigations. […] The effects on AP characteristics also included the depolarization of the maximum diastolic potential (MDP) from −52.2 ± 1.7 mV to −36.1 ± 2.3 mV (n = 7, Figure 2D) and the decrease of maximal upstroke velocity from 6.9 ± 0.9 mV/s (vehicle, n = 7) to 4.6 ± 0.9 mV/s (BeKm-1, n = 7), representing an average 1.5-fold reduction (Figure 2E). […] The action potential duration (APD) at 30% and 50% of repolarization were spared, which is consistent with the role of hERG in the late phase of repolarization in these cells (Figure 2G). In contrast, BeKm-1 was able to delay the repolarization of these cells, increasing the APD at 90% repolarization (APD90) from 95.0 ± 8.4 ms (vehicle, n = 7) to 117.4 ± 11.3 ms (BeKm-1, n = 7; 23% increase) (Figure 2G). While these values could theoretically be corrected for the BeKm-1-induced variability in cycle length (Figure 2C) using the Fridericia cube root formula, the corrected data would be meaningless because of the additional depolarization in MDP (Figure 2D).
hiPS-CMs: All experiments were performed on the human-induced pluripotent stem cell (hiPSC) clone C2a that has been previously characterized, including cardiac differentiation and electrophysiology data. Cells were expanded on stem cell-qualified matrigel-coated plates (0.05 mg/mL; BD Bioscience, Le Pont de Claix, France) and cultured in StemMACS iPS-BREW XF medium (Miltenyi Biotec, Paris, France). Cells were passaged every […] using Gentle Cell Dissociation Buffer (StemCell Technologies, Grenoble, France). Prior to differentiation, cells were cultured as a monolayer in StemMACS iPS-brew supplemented with 1 × Y-27632 Rho-associated, coiled-coil containing protein kinase (ROCK) inhibitor (StemCell Technologies, Grenoble, France). When hiPSCs reached proper confluence, they were differentiated into cardiomyocytes using previously described « Matrix sandwich » protocol. At day 20 ± 1 of differentiation, beating cardiomyocytes were manually dissected and isolated from non-beating cells. Briefly, cardiomyocytes were washed with phosphate-buffered saline (PBS) and treated with TrypLE Express (10x) (Thermo Fisher Scientific, Illkirch-Graffenstaden, France) for 5 min at 37 °C. The enzyme was inactivated by adding RPMI1640 medium containing 20% (vol/vol) KnockOut Serum Replacement (KSR) (Thermo Fisher Scientific, Illkirch-Graffenstaden, France). The supernatant was removed, and cells were suspended in RPMI1640 medium containing 20% (vol/vol) KSR and ROCK inhibitor. Then, the cells were plated on specific supports suitable for functional assessments.
Manual patch clamp: Single-cell dissociated hiPS-CMs were plated at low density on matrigel-coated 35 mm Petri dishes (Nunc from Thermo Fisher Scientific, Illkirch-Graffenstaden, France). Electrophysiological experiments were performed 12 to 14 days after dissociation. APs were recorded in the current-clamp mode, using the amphotericin-B-perforated patch-clamp technique. All experiments were conducted at 37 °C. APs were recorded either at basal state (spontaneous APs) or using the dynamic patch-clamp method to electronically mimic the expression of the inward rectifier potassium current, IK1 [23, 24]. The resting membrane potential (RMP) was set to −80 ± 5 mV by injecting 2 to 2.8 pA/pF in silico IK1 density. This level of current was set so that about 80% of the ventricular-like hiPS-CMs could reach these physiological RMP values. The remaining cells were discarded from the recording process. […]

CC[C@H](C)[C@H](NC(=O)[C@H](CC(=O)O)NC(=O)[C@@H](NC(=O)[C@@H]1CCCN1C(=O)[C@@H](N)CCCNC(=N)N)[C@@H](C)O)C(=O)N[C@@H](CCCCN)C(=O)N[C@H]1CSSC[C@@H]2NC(=O)[C@H](CCCNC(=N)N)NC(=O)CNC(=O)[C@H](CC(N)=O)NC(=O)[C@H]([C@@H](C)O)NC(=O)[C@H](CCCCN)NC(=O)CNC(=O)[C@H](Cc3ccccc3)NC(=O)[C@H](CCCNC(=N)N)NC(=O)[C@H](CO)NC(=O)[C@H](CCCCN)NC(=O)[C@@H]3CSSC[C@@H](C(=O)N[C@@H](Cc4ccccc4)C(=O)O)NC(=O)[C@H](CC(=O)O)NC(=O)[C@H](CSSC[C@H](NC(=O)[C@H](CCC(N)=O)NC(=O)[C@H](Cc4ccc(O)cc4)NC(=O)[C@H](CO)NC(=O)[C@H](CCC(=O)O)NC(=O)[C@H](CO)NC1=O)C(=O)N[C@@H](Cc1ccccc1)C(=O)N1CCC[C@H]1C(=O)N[C@@H](C(C)C)C(=O)N3)NC(=O)[C@H](Cc1ccccc1)NC(=O)CNC(=O)[C@H](CC(N)=O)NC(=O)[C@H](C(C)C)NC2=O [BeKm-1] (H-RPTDIKCSESYQCFPVCKSRFGKTNGRCVNGFCDCF-OH; disulfide 7-28, 13-33, 17-35 (inferred); N-terminus and C-terminus assumed)
AP frequency (5 nM BeKm-1, 37 °C, vehicle 2.50 ± 0.20 Hz, n = 7, mean ± SEM, significant): 0.70 ± 0.26 Hz | kinetics of AP parameter changes (5 nM application, Figure S2): changed according to similar kinetics | maximal upstroke velocity, fold reduction (5 nM vs vehicle, average): 1.5 -fold | APD90 increase (5 nM vs vehicle, spontaneous APs): 23% | restitution of AP parameters after toxin washout (5 nM, representative time course, Figure S2): rather rapid restitution of these parameters after toxin washout | APD at 30% and 50% of repolarization (5 nM, spontaneous APs): spared | APD at 90% repolarization (APD90) (5 nM, spontaneous APs, vehicle 95.0 ± 8.4 ms, n = 7, mean ± SEM, not corrected for cycle length): 117.4 ± 11.3 ms | APD90 variability (5 nM, Poincaré plot): increased | AP rhythm variability (5 nM, Poincaré plot of consecutive APs): increase of rhythm variability | maximal upstroke velocity (dV/dtmax) (5 nM, vehicle 6.9 ± 0.9 mV/s, n = 7, mean ± SEM): 4.6 ± 0.9 mV/s | AP overshoot (5 nM, vehicle 29.9 ± 3.1 mV, n = 7, mean ± SEM, not significant): 22.2 ± 6.4 mV | maximum diastolic potential (MDP) (5 nM, vehicle −52.2 ± 1.7 mV, n = 7, mean ± SEM): −36.1 ± 2.3 mV | beating / AP arrest (100 nM, representative trace of single hiPS-CM): AP arrest; also recorded: complete beating arrest by a major membrane depolarization | early afterdepolarizations (EADs) (spontaneously beating ventricular-like cells): never observed | reversibility on wash (wash after 5 nM, n = 5): fully restored all parameters
